Consider 12 molecules from PubChem BioAssay AID256 (DTP/NCI, 2004).

Inconclusive results and toxic doses are left out.

In the experiment the test system is CD2F1 mice, L1210 leukemia ip, survival T/C. Description: NCI In Vivo Anticancer Drug Screen. Data for tumor model L1210 Leukemia (intraperitoneal) in CD2F1 (CDF1) mice. The settings on record: higher = longer survival. The method, boiled down:
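Implant tumor; dose compound or vehicle; measure endpoint in both groups; report treated divided by control.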

Setting [1] is: endpoint: mean survival time, dose: 100.0 mg/kg/injection, schedule: Q01DX009 (ip), vehicle: saline with Tween-80.
Setting [2] is: endpoint: median survival time, dose: 50.0 mg/kg/injection, schedule: Q01DX005 (ip), vehicle: saline with Tween-80.
[3] abbreviates: endpoint: median survival time, dose: 100.0 mg/kg/injection, schedule: Q01DX005 (ip), vehicle: saline with Tween-80.
[4] abbreviates: endpoint: median survival time, dose: 200.0 mg/kg/injection, schedule: Q01DX005 (ip), vehicle: saline with Tween-80.
[5] abbreviates: endpoint: mean survival time, dose: 100.0 mg/kg/injection, schedule: Q01DX001 (ip), vehicle: saline with Tween-80.
The mark [6] stands for this setting: endpoint: mean survival time, dose: 200.0 mg/kg/injection, schedule: Q01DX001 (ip), vehicle: saline with Tween-80.
The mark [7] stands for this setting: endpoint: mean survival time, dose: 200.0 mg/kg/injection, schedule: Q01DX009 (ip), vehicle: saline with Tween-80.
Where [8] appears, read: endpoint: mean survival time, dose: 400.0 mg/kg/injection, schedule: Q01DX001 (ip), vehicle: saline with Tween-80.

As for `Nc1ccn(C2OC(COP(=O)(O)O)C(O)C2O)c(=O)n1` (stereo not drawn), the T/C was 337 % of control (endpoint: mean survival time, dose: 4.0 mg/kg/injection, schedule: Q03HX024 (ip), vehicle: saline); 176 % of control (endpoint: mean survival time, dose: 8.0 mg/kg/injection, schedule: Q01DX008 (ip), vehicle: saline); 302 % of control (endpoint: mean survival time, dose: 8.0 mg/kg/injection, schedule: Q03HX024 (ip), vehicle: saline); 183 % of control (endpoint: mean survival time, dose: 16.0 mg/kg/injection, schedule: Q01DX008 (ip), vehicle: saline); 185 % of control (endpoint: mean survival time, dose: 16.0 mg/kg/injection, schedule: Q01DX009 (ip), vehicle: saline); 487 % of control (endpoint: mean survival time, dose: 16.0 mg/kg/injection, schedule: Q03HX024 (ip), vehicle: saline). Moreover, the T/C was 228 % of control (endpoint: mean survival time, dose: 16.0 mg/kg/injection, schedule: Q03HX024 (oral), vehicle: saline); 173 % of control (endpoint: mean survival time, dose: 32.0 mg/kg/injection, schedule: Q01DX008 (ip), vehicle: saline); 215 % of control (endpoint: mean survival time, dose: 32.0 mg/kg/injection, schedule: Q01DX009 (ip), vehicle: saline); 240 % of control (endpoint: mean survival time, dose: 32.0 mg/kg/injection, schedule: Q03HX024 (ip), vehicle: saline); 266 % of control (endpoint: mean survival time, dose: 32.0 mg/kg/injection, schedule: Q03HX024 (oral), vehicle: saline); 121 % of control (endpoint: mean survival time, dose: 64.0 mg/kg/injection, schedule: Q01DX001 (ip), vehicle: saline). Also, the T/C by setting is: (endpoint: mean survival time, dose: 64.0 mg/kg/injection, schedule: Q01DX008 (ip), vehicle: saline) 155 % of control; (endpoint: mean survival time, dose: 64.0 mg/kg/injection, schedule: Q01DX008 (oral), vehicle: saline) 156 % of control; (endpoint: mean survival time, dose: 64.0 mg/kg/injection, schedule: Q01DX009 (ip), vehicle: saline) 212 % of control; (endpoint: mean survival time, dose: 64.0 mg/kg/injection, schedule: Q03HX024 (oral), vehicle: saline) 300 % of control; (endpoint: mean survival time, dose: 128.0 mg/kg/injection, schedule: Q01DX001 (ip), vehicle: saline) 117 % of control; (endpoint: mean survival time, dose: 128.0 mg/kg/injection, schedule: Q01DX001 (oral), vehicle: saline) 106 % of control. Besides, the T/C runs as follows: (endpoint: mean survival time, dose: 128.0 mg/kg/injection, schedule: Q01DX008 (oral), vehicle: saline) 167 % of control; (endpoint: mean survival time, dose: 128.0 mg/kg/injection, schedule: Q01DX009 (oral), vehicle: saline) 155 % of control; (endpoint: mean survival time, dose: 128.0 mg/kg/injection, schedule: Q03HX024 (oral), vehicle: saline) 155 % of control; (endpoint: mean survival time, dose: 128.0 mg/kg/injection, schedule: Q04DX003 (oral), vehicle: saline) 120 % of control; (endpoint: mean survival time, dose: 256.0 mg/kg/injection, schedule: Q01DX001 (ip), vehicle: saline) 112 % of control; (endpoint: mean survival time, dose: 256.0 mg/kg/injection, schedule: Q01DX001 (oral), vehicle: saline) 107 % of control. Moreover, the T/C (endpoint: mean survival time, dose: 256.0 mg/kg/injection, schedule: Q01DX009 (oral), vehicle: saline) was 172 % of control; the T/C (endpoint: mean survival time, dose: 256.0 mg/kg/injection, schedule: Q04DX003 (oral), vehicle: saline) is 121 % of control; the T/C (endpoint: mean survival time, dose: 512.0 mg/kg/injection, schedule: Q01DX001 (oral), vehicle: saline) is 109 % of control; the T/C (endpoint: mean survival time, dose: 512.0 mg/kg/injection, schedule: Q01DX009 (oral), vehicle: saline) was 182 % of control; the T/C (endpoint: mean survival time, dose: 1024.0 mg/kg/injection, schedule: Q01DX001 (oral), vehicle: saline) was 155 % of control; the T/C (endpoint: mean survival time, dose: 1024.0 mg/kg/injection, schedule: Q01DX009 (oral), vehicle: saline) was 104 % of control. Under “endpoint: mean survival time, dose: 1024.0 mg/kg/injection, schedule: Q04DX003 (oral), vehicle: saline”, the T/C was 164 % of control.

For the molecule `CCOC(=O)Nc1cc(NC(C)CCCN(CC)CC)c2ncc(-c3cc(OC)c(OC)c(OC)c3)nc2n1` (stereo not drawn) (tested in a mixture with another compound), the T/C (endpoint: mean survival time, dose: 50.0 mg/kg/injection, schedule: Q01DX009 (ip), vehicle: saline) is 89 % of control; the T/C (endpoint: mean survival time, dose: 100.0 mg/kg/injection, schedule: Q01DX009 (ip), vehicle: saline) is 89 % of control; the T/C (endpoint: mean survival time, dose: 200.0 mg/kg/injection, schedule: Q01DX009 (ip), vehicle: saline) is 89 % of control.

As for `CC(C)NC(=O)OCc1c(COC(=O)NC(C)C)c(-c2ccc(Cl)c(Cl)c2)n2c1CCC2`, the T/C (endpoint: mean survival time, dose: 6.25 mg/kg/injection, schedule: Q01DX009 (ip), vehicle: distilled water + Tween-80) was 115 % of control; the T/C (endpoint: mean survival time, dose: 6.25 mg/kg/injection, schedule: Q01DX009 (ip), vehicle: saline with Tween-80) was 103 % of control; the T/C (endpoint: mean survival time, dose: 12.5 mg/kg/injection, schedule: Q01DX009 (ip), vehicle: distilled water + Tween-80) is 118 % of control; the T/C (endpoint: mean survival time, dose: 12.5 mg/kg/injection, schedule: Q01DX009 (ip), vehicle: saline with Tween-80) is 116 % of control; the T/C (endpoint: mean survival time, dose: 25.0 mg/kg/injection, schedule: Q01DX009 (ip), vehicle: saline with Tween-80) was 121 % of control; the T/C under setting [1] is 89 % of control. Further, the T/C was 151 % of control under setting [2]; 179 % of control under setting [3]; 190 % of control under setting [4]; 102 % of control (endpoint: median survival time, dose: 800.0 mg/kg/injection, schedule: Q01DX005 (ip), vehicle: saline with Tween-80).

In the case of `C1=CC2OC1c1ccccc12`, the T/C reads like this: (endpoint: mean survival time, dose: 100.0 mg/kg/injection, schedule: Q04DX003 (ip), vehicle: other) 93 % of control; (endpoint: mean survival time, dose: 200.0 mg/kg/injection, schedule: Q04DX003 (ip), vehicle: other) 98 % of control; (endpoint: mean survival time, dose: 400.0 mg/kg/injection, schedule: Q04DX003 (ip), vehicle: other) 93 % of control.

On to `Cc1ccc2c(c1)C(C(F)(F)F)(C(F)(F)F)OC(C(F)(F)F)(C(F)(F)F)N2`, for which the T/C was 104 % of control under setting [5]; 95 % of control under setting [1]; 103 % of control under setting [6]; 102 % of control under setting [7]; 95 % of control under setting [8].

Turning to `C=CC1C2C=CC(CC2)C1O` (stereo not drawn), the T/C by setting is: (endpoint: mean survival time, dose: 100.0 mg/kg/injection, schedule: Q04DX003 (ip), vehicle: saline with Tween-80) 98 % of control; (endpoint: mean survival time, dose: 200.0 mg/kg/injection, schedule: Q04DX003 (ip), vehicle: saline with Tween-80) 101 % of control; (endpoint: mean survival time, dose: 400.0 mg/kg/injection, schedule: Q04DX003 (ip), vehicle: saline with Tween-80) 104 % of control.

Regarding `CCSc1nc(N)c2ncn(C3OC(C)C(O)C(O)C3O)c2n1` (stereo not drawn), the T/C is 106 % of control (endpoint: median survival time, dose: 12.5 mg/kg/injection, schedule: Q01DX005 (ip), vehicle: saline with Tween-80); 101 % of control (endpoint: median survival time, dose: 25.0 mg/kg/injection, schedule: Q01DX005 (ip), vehicle: saline with Tween-80); 94 % of control under setting [2]; 103 % of control under setting [3]; 100 % of control under setting [4].

Turning to `O=C1CCC(=O)N1O`, the T/C is, setting by setting: (endpoint: mean survival time, dose: 100.0 mg/kg/injection, schedule: Q01DX001 (ip), vehicle: saline) 104 % of control; (endpoint: mean survival time, dose: 100.0 mg/kg/injection, schedule: Q04DX003 (ip), vehicle: saline) 100 % of control; (endpoint: mean survival time, dose: 200.0 mg/kg/injection, schedule: Q01DX001 (ip), vehicle: saline) 103 % of control; (endpoint: mean survival time, dose: 200.0 mg/kg/injection, schedule: Q04DX003 (ip), vehicle: saline) 102 % of control; (endpoint: mean survival time, dose: 400.0 mg/kg/injection, schedule: Q01DX001 (ip), vehicle: saline) 103 % of control; (endpoint: mean survival time, dose: 400.0 mg/kg/injection, schedule: Q04DX003 (ip), vehicle: saline) 98 % of control.

For `CCOC(=O)NCC(Cl)CP(=O)(c1ccccc1)c1ccccc1` (stereo not drawn), the T/C is 92 % of control under setting [5]; 97 % of control under setting [1]; 92 % of control under setting [6]; 97 % of control under setting [7]; 92 % of control under setting [8]; 96 % of control (endpoint: mean survival time, dose: 400.0 mg/kg/injection, schedule: Q01DX009 (ip), vehicle: saline with Tween-80).

As to `NC(=S)N/N=C/c1ccc(I)cn1`, the T/C was 93 % of control (endpoint: mean survival time, dose: 100.0 mg/kg/injection, schedule: Q04DX002 (ip), vehicle: saline with Tween-80); 93 % of control (endpoint: mean survival time, dose: 200.0 mg/kg/injection, schedule: Q04DX002 (ip), vehicle: saline with Tween-80); 93 % of control (endpoint: mean survival time, dose: 400.0 mg/kg/injection, schedule: Q04DX002 (ip), vehicle: saline with Tween-80).

In the case of `Nc1ncnc(N)c1N`, under setting [1], the T/C was 112 % of control.

Consider `O=C(Nc1cc(Cl)c(Cl)cc1Cl)Nc1cc(Cl)ccc1Oc1ccc(Cl)cc1S(=O)(=O)O`, for which the T/C was 96 % of control under setting [5] and 98 % of control under setting [6].
